In one assay the test system is residual tumor tissue. Description: Total intratumoral GSH in residual tumor of syngeneic mammary carcinoma. As to conditions: DTX 10 mg/kg i.v., vs vehicle control cohorts. Type of assay: in vivo, mice. On the procedure: G) Total intratumoral GSH obtained from residual tumor tissue homogenate of a syngeneic mammary carcinoma treated with vehicle or DTX (10 mg/kg i.v.). N=4 groups, ***p<0.001.
In vitro detection of glucose uptake was performed using 2-(N-7-Nitrobenz-2-oxa-1,3-diazol-4-yl)Amino)-2-Deoxyglucose (2-NBDG) (Invitrogen, Carlsbad Calif.), dissolved in DMSO to 50 mM. Cells were pre-treated with kinase inhibitors or vehicle for 3 hours in glucose- and phenol red-free media before addition of 50 μM 2-NBDG and subsequently read by FACS ex/em 488/535 nm. ROS was determined by pre-loading cells with CM-DCFDA (1 μM), washed 2 times with PBS and subsequently treated with H2O2 or vehicle; when kinase inhibitors were included in treatment, cells were first incubated with inhibitor for 3 hours prior to CM-DCFDA loading. Fluorescence was then determined by FACS ex/em 488/535 nm. For the following assays, cells were trypsinized and counted by Nexcelom cell counter (Lawrence, Mass.) prior to being subjected to analysis in order to achieve a quantitative value per cell: Reduced glutathione was determined using a colorimetric glutathione recycling system by DTNB following manufacturer protocol (Biovision, Milpitas Calif.). […] Protein synthesis was measured by two means 1. […] Fluorescence was detected by FACS as described below. […] GFP protein translation was determined by fluorescent microscopy. […]

The next assay deals with MDA-MB-231 cells. Description: Single cell, real-time assessment of mitochondrial ROS (MitoSox). Type of assay: cell-based. The following applies: docetaxel 50 nM. On the procedure:
Single cell analysis was performed as follows: Mitosox Red (Invitrogen, Carlsbad Calif.) was incubated with live parent cells for 30 minutes (5 μM), washed and recovered in phenol red-free DMEM with 2% FBS and treated with docetaxel (50 nM). Equivalent exposure times of immunofluorescent microscopy were used at each interval which was originally set at time 0 against an unstained control cell population. Images were captured by a NIKON Eclipse TI-U microscope with a 20× ELDW or 10× or 40× Plan-Apo objective lens (Nikon, Melville N.Y.) and NIS Elements Viewer version 3.22 (Nikon, Melville N.Y.) imaging software. A negative control (non-transfected) cell subset was used to normalize background and autofluorescence following docetaxel treatment. Individual cells were tracked over time and indications of cell death were noted using a 2 TdT-Fluor In Situ apoptosis detection kit (Trevigen Gaithersburg Md.). Cells were plotted as a function of apoptosis induction (or loss of adherence to culture dish indicating cell death) and changes in Mitosox fluorescence over time as shown in main figures.

In the next assay the test system is CD44v6 and EGFR. Description: CD44/CD44v6-EGFR immunocomplex by immunoprecipitation and western blot. It is filed as cell-based. As to conditions: MDA-MB-231 cells; docetaxel sublethal dose (10 nM), with or without erlotinib. For orientation: Immunoblotting shows a protein as a band on a membrane.
For a further assay, the system named is CD44. Description: Cell surface CD44 expression by FACS. It is filed as cell-based. As to conditions: sub-lethal docetaxel (25 nM), MDA-MB-231. On the procedure: DU145 and DU145-TxR were provided by A. Mizokami^63 and cultured in DMEM containing 10% FBS, resistant line included 100 nM paclitaxel in the culture media. During treatments with chemotherapeutics, cells were grown to semi-confluence and treated with indicated concentrations of chemotherapy in serum-containing medium for indicated time points. When small molecule inhibitors were included in treatments, they were added simultaneously with chemotherapy. […] Scrambled siRNA was used as a control. For chemotherapy treatment experiments: Cancer cells were plated at a density of 0.5-1×10^5 cells/ml and allowed to adhere for 24-48 hr. […] Following washes with PBS, adherent cells were trypsinized and re-plated at a density of 1.5-2×10^5 cells/ml and cultured in serum-containing medium. […] A population of drug naïve parent cells were always cultured alongside DTC and fresh media was added at every interval that experimental population (DTC) received fresh media.
Cells were cultured as indicated, removed from culture dishes with accutase stem-pro dissociation reagent (Invitrogen, Carlsbad Calif.) and fixed with 4% paraformaldehyde in PBS for 30 min at RT, washed twice with PBS and blocked in 10% goat serum (v/v). Whenever necessary, cells were permeabilized with 0.05% saponin in PBS. Cells were incubated with CD44-APC (BD biosciences, San Jose, Calif.) overnight at 4 C and analyzed by FACS (C6 Accuri cyomteters Inc Ann Arbor, Mich.), data analysis using FlowJo software (Tree Star Inc., Ashland Oreg.) and Accuri cFlow plus software to obtain and confirm mean fluorescent intensity (GNU.org).
For orientation: In flow cytometry, cells or beads pass a laser one at a time.

Procedure for CD44v6 and EGFR: Laemli sample buffer was prepared as a 5× solution containing □-mercaptoethanol as a reducing agent. Immunoprecipitaion was performed using both classic and direct IP kits purchased from Pierce following manufacturer protocols (Thermo Fisher inc. Rockford, Ill.). Briefly, cell lysates were prepared using IP/Lysis Buffer (Thermo Fisher inc. Rockford, Ill.) in the presence of 2× HALT protease/phosphatase inhibitor cocktail (Thermo Fisher inc. Rockford, Ill.). […] Direct immunoprecipitation was performed following manufacturer protocol. […] Protein samples were resolved by SDS-PAGE and transferred to PVDF membranes prior to incubation at 4 C with indicated primary antibodies; NHE-1, GLUT-1 and cytoplasmic domain-targeting EGFR were purchased from Santa Cruz Biotech (Santa Cruz, Calif.). p70S6K and pp70S6K, mTOR and pMTOR, pERM and ERM, Ezrin and pEzrin, pAKT and AKT, pPRAS40 and PRAS40, EGFR and pEGFR antibodies cleaved caspase-3 and β-Actin were purchased from cell signaling technology (Cambridge, Mass.). EGFR and CD44v6 neutralizing antibodies were purchased from R&D (Minneapolis, Minn.). […] Optical densities of western blots were measured using ImageJ open source software (National Institutes of Health) and validated using Adobe CS5.

As to `CC(=O)O[C@@]12CO[C@@H]1C[C@H](O)[C@@]1(C)C(=O)[C@H](O)C3=C(C)[C@@H](OC(=O)[C@H](O)[C@@H](NC(=O)OC(C)(C)C)c4ccccc4)C[C@@](O)([C@@H](OC(=O)c4ccccc4)[C@H]21)C3(C)C` [docetaxel], the “whole cell GSH in residual tumor” value in the assay with residual tumor tissue was “significant global increase”. Besides, in the assay with MDA-MB-231 cells, the “time of mitochondrial ROS burst in cells which survive” value is 4 to 8 h. In addition, the “immunocomplex between CD44v6 and EGFR” value in the assay with CD44v6 and EGFR was “induced”. Besides, the “time to induction of cell surface CD44” value with CD44 was ≤ 4 h.

For the origin of these results see patent US10300070B2, “Metabolically-activated drug conjugates to overcome resistance in cancer therapy” (The Brigham and Women's Hospital, Inc., priority 2014, dated 2019).
